Assay [1] deals with T1, Serine/threonine-protein kinase Chk1 (Homo sapiens, UniProt O14757).
T1 sequence (O14757 whole entry): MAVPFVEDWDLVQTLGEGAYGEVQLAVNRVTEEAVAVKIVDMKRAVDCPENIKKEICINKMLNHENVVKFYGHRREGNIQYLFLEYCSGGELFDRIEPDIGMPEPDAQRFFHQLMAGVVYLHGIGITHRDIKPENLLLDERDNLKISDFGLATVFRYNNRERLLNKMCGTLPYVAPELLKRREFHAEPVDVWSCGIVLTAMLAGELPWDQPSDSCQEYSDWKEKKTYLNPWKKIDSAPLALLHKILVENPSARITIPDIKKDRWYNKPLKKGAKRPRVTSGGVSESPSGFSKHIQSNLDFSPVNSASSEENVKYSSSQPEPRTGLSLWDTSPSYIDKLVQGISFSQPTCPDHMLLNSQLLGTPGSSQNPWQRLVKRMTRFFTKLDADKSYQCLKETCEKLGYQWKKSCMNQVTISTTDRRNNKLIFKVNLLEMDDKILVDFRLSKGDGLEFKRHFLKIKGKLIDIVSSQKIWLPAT
The experiment in a line: Inhibition of human Chk1.

Assay [2] deals with HT-29. The experiment in a line: Cytotoxicity against human HT29 cells after 4 hrs by microculture tetrazolium assay. The assay is classed as functional, cell-based. The settings on record: HT-29, 4 h.
In assay [3] the test system is L1210. The assay is described as follows: Cytotoxicity against mouse L1210 cells after 4 hrs by microculture tetrazolium assay. The settings on record: L1210, 4 h. The assay is classed as functional, cell-based.
For assay [4], the target named is T2, Serine/threonine-protein kinase Chk1 (Homo sapiens) (UniProt O14757).
T2 sequence (whole entry): T1 sequence (O14757 whole entry)
The experiment in a line: Inhibition of human Chk1 at 10 uM.

The target in assay [5] is Proto-oncogene tyrosine-protein kinase Src (Homo sapiens) (UniProt P12931). The experiment in a line: Inhibition of Src at 10 uM after 20 mins.
For assay [6], the system named is HCT-116. The experiment in a line: Cytotoxicity against human HCT116 cells after 4 hrs by microculture tetrazolium assay. The assay is classed as functional, cell-based. The settings on record: HCT-116, 4 h.

Usually IC50 stands for the concentration needed to halve the response being measured. Higher therefore signals a need for much substance. As usually defined, the inhibition is the percentage by which the read-out fell short of the control.

The structures appear in SMILES notation.

Sequence of Proto-oncogene tyrosine-protein kinase Src (Homo sapiens) (P12931 2-536 limits assumed): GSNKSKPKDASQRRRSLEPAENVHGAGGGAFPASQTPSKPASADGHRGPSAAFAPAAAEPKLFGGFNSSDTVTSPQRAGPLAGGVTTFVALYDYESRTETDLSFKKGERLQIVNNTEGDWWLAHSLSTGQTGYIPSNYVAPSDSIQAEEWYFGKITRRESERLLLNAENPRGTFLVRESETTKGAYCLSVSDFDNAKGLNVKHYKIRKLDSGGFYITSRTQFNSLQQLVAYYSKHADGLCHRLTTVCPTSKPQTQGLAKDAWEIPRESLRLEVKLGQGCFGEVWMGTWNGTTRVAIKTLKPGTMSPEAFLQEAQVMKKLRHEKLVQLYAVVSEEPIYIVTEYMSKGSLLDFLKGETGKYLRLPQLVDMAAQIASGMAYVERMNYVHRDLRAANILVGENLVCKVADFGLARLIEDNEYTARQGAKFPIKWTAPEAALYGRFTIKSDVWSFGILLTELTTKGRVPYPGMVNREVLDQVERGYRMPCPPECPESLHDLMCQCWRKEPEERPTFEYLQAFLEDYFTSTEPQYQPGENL

With `O=C1NC(=O)c2c1c1c(c3c2[nH]c2ccccc23)C(=O)NC1`, inhibition in assay [1] was half-maximal at 0.051 µM (IC50).

For `CC1(C)C(=O)c2c3c(c4c([nH]c5ccccc54)c2C1=O)C(=O)NC3`, the concentration for half-maximal inhibition (IC50) in assay [2] amounted to 2.5 µM; in assay [3], 2.2 µM; in assay [6], 1.7 µM. In addition, the results for the inhibition in assay [4] and in assay [5] were 20% and 19%, respectively.

As to `O=c1[nH]c(=O)c2c1c1[nH]c3ccccc3c1c1c(=O)[nH]c(=O)c21` [BIS-IMIDE A], the IC50 in assay [2] was determined as 9.7 µM; in assay [3] it was 32.7 µM.

As for `O=C1NC(=O)c2c1c1c(O)ccc(O)c1c1[nH]c3ccccc3c21`, the 50% inhibitory concentration (IC50) stood at 5.6 µM in assay [2], 1.1 µM in assay [3] and 3.1 µM in assay [6].

As for `O=C1NC(=O)c2c1c1[nH]cnc1c1[nH]c3ccccc3c21` [GRANULATIMIDE], the 50% inhibitory concentration (IC50) was 5.7 µM in assay [2], 2.8 µM in assay [3] and 6.1 µM in assay [6].

`O=C1NC(=O)c2c1c1c3ccccc3[nH]c1n1cncc21` [ISOGRANULATIMIDE]: the IC50 in assay [2] was 13.7 µM; in assay [3], 10 µM; in assay [6], 13 µM.

Consider `O=c1ccc(=O)c2c1c1[nH]c3ccccc3c1c1c(=O)[nH]c(=O)c21`, for which the figures for the IC50 in assay [2], in assay [3] and in assay [6] were 17.4 µM, 6.8 µM and 5.3 µM, respectively.

Consider `CC1(C)C(=O)c2c3c(c4c([nH]c5ccccc54)c2C1=O)C(=O)NC3=O`, for which the IC50 in assay [2] was 38.5 µM; in assay [1], 14.5 µM; in assay [3], 33 µM; in assay [6], 32.7 µM. The molecule further gave an inhibition in assay [4] of 63%.

For `O=C1NCc2c1c1c(c3c2[nH]c2ccccc23)C(=O)NC1=O`, the IC50 is 0.58 µM in assay [2], 0.024 µM in assay [1], > 50 µM in assay [3] and 8.54 µM in assay [6]. In addition, the inhibition in assay [4] was found to be 83%.

For `O=C1NC(=O)c2c1c1c(O)ccc3c1c1c2c2ccccc2n1[C@]1(O3)O[C@H](CO)[C@@H](O)[C@H](O)[C@H]1O`, the IC50 in assay [2] was 57.8 µM; in assay [1], 1.92 µM; in assay [3], 21.2 µM; in assay [6], 46.4 µM. In addition, the inhibition in assay [4] stood at 73%; in assay [5] it was 9%.

The values above are taken from ChEMBL document CHEMBL1144715, “Synthesis, checkpoint kinase 1 inhibitory properties and in vitro antiproliferative activities of new pyrrolocarbazoles” (Bioorg Med Chem, 2008).
